In patent US11878975B2, “Substituted indole compounds useful as TLR inhibitors” (BRISTOL-MYERS SQUIBB COMPANY, priority 2017, dated 2024) one finds IC50 data, which are given here for 20 compounds.

Common to all, as to assay type: cell-based
For one assay, the target named is T1, human TLR7 (Homo sapiens, UniProt Q9NYK1).
T1 construct: host or cells: HEK-Blue cells
T1 sequence (Q9NYK1 27-1049): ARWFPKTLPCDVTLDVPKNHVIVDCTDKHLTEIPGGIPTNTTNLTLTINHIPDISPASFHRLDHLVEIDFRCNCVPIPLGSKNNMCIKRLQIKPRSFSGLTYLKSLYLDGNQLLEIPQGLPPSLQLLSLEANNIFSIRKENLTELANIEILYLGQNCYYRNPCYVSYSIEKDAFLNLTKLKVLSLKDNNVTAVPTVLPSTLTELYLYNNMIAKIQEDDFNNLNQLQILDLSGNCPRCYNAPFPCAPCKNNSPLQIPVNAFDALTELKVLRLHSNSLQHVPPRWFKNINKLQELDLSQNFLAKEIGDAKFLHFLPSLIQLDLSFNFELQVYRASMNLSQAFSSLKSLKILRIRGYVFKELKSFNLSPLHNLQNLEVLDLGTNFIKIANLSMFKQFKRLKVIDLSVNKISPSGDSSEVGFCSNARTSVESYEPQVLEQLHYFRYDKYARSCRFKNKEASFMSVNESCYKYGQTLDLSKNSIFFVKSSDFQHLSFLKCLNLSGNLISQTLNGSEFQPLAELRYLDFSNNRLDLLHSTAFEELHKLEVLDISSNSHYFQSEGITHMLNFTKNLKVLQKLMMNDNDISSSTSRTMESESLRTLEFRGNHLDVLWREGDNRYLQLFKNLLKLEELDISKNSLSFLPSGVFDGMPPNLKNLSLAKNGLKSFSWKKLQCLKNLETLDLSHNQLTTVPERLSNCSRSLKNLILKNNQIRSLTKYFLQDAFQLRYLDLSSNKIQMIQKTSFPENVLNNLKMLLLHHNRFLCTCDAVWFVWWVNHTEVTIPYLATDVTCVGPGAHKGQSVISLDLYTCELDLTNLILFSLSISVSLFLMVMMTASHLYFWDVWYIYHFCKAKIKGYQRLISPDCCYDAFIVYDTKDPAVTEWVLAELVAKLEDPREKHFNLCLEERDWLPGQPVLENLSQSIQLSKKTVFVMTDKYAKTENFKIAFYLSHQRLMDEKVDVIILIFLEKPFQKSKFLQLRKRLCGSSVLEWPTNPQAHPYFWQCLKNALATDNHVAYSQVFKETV
As to the kind of experiment: TLR7 inhibition reporter assay (HEK-Blue cells, SEAP reporter, gardiquimod stimulation). The following applies: HEK-Blue cells overexpressing human TLR7, SEAP reporter, gardiquimod 7.5 μM. The method, boiled down: (§1)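 Percent inhibition is derived from SEAP signal, scaled between agonist-plus-DMSO wells and wells given a known inhibitor. Test compounds (0.05 nM–50 μM) are pre-incubated 30 min at room temperature before agonist addition (TLR7: 7.5 μM gardiquimod; TLR8: 15.9 μM R848; TLR9: 5 nM ODN2006) and 22 h culture at 37 °C.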
(In general: Reporter assays use an easily measured gene product as a stand-in for the process of interest.)

The target of a further assay is T2, human TLR8 (Homo sapiens, UniProt Q9NR97).
T2 construct: host or cells: HEK-Blue cells
T2 sequence (Q9NR97 27-1041): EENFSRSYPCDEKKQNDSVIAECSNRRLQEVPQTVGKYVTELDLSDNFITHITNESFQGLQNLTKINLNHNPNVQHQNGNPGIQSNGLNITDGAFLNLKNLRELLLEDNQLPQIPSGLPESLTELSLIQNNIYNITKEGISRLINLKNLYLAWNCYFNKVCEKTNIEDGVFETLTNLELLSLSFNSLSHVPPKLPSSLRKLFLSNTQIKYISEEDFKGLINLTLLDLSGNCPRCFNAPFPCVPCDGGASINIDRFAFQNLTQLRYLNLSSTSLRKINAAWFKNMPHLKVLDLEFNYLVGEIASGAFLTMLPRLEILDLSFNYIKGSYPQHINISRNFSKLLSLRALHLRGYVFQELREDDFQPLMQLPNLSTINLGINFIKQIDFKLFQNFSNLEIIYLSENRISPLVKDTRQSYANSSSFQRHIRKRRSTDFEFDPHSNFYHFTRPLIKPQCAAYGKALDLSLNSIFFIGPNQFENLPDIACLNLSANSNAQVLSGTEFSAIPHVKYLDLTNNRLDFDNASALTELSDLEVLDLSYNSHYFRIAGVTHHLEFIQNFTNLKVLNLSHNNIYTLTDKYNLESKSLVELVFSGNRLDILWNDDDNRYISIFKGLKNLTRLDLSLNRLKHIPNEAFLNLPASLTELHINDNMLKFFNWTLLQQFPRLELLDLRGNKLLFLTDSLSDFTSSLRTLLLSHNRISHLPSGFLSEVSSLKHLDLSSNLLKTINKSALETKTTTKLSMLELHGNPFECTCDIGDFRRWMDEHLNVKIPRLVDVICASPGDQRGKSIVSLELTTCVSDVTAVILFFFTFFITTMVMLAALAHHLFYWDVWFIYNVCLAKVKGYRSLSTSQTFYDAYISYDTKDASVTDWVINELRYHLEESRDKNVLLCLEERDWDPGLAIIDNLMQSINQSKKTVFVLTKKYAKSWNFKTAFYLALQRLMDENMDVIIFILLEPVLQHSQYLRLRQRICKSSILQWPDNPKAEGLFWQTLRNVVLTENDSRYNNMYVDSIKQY
Description: TLR8 inhibition reporter assay (HEK-Blue cells, SEAP reporter, R848 stimulation). The following applies: HEK-Blue cells overexpressing human TLR8, SEAP reporter, R848 15.9 μM. The method, boiled down:
as §1

The next assay addresses T3, human TLR9 (Homo sapiens, UniProt Q9NR96).
T3 construct: host or cells: HEK-Blue cells
T3 sequence (Q9NR96 26-1032): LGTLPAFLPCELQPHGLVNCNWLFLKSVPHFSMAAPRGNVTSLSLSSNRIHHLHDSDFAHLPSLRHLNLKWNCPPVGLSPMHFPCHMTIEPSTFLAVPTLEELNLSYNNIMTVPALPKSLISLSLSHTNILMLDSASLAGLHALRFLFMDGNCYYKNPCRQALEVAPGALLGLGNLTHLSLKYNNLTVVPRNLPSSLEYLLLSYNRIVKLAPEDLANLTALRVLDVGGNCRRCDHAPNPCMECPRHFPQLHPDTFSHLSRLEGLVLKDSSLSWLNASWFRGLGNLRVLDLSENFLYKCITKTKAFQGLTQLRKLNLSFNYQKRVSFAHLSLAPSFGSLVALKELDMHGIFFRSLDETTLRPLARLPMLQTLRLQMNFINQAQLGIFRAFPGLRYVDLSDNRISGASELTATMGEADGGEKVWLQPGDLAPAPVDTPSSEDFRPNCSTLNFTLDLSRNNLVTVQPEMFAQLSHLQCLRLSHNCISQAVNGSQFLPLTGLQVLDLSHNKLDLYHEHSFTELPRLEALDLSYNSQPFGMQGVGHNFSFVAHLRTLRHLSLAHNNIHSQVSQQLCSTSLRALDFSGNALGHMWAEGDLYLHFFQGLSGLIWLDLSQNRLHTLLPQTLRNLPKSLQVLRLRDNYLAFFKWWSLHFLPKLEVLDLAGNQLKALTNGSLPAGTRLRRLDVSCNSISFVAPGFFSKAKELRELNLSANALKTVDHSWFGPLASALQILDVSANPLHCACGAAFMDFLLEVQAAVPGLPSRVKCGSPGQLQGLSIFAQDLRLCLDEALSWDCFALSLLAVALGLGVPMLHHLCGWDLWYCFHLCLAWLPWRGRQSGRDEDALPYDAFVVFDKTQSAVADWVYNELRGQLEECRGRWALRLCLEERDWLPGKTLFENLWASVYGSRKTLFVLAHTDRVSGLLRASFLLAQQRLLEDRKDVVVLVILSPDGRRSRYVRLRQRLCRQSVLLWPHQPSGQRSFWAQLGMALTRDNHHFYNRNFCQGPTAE
Description: TLR9 inhibition reporter assay (HEK-Blue cells, SEAP reporter, ODN2006 stimulation). The following applies: HEK-Blue cells overexpressing human TLR9, SEAP reporter, ODN2006 5 nM. The method in brief:
as §1

As usually defined, the IC50 is the concentration that gives 50% inhibition. A low value points to higher potency. On to `Cc1cc(-c2[nH]c3ccc(C4CCC(CN(C)C)CC4)cc3c2C(C)C)cc(C)n1` (stereo not drawn) [Example 176, 1-(4-(2-(2,6-dimethylpyridin-4-yl)-3-isopropyl-1H-indol-5-yl)cyclohexyl)-N,N-dimethylmethanamine], for which the figures for the IC50 on human TLR7, at human TLR8 and on human TLR9 were 26 nM, 55 nM and 8890 nM, respectively.

Take `Cc1c(-c2[nH]c3ccc(C4CC5CN(CCS(C)(=O)=O)CC5C4)cc3c2C(C)C)cn2ncnc2c1C` (stereo not drawn) [Example 514]: the results for the IC50 against human TLR7, at human TLR8 and against human TLR9 were 1 nM, 18 nM and 15700 nM, respectively.

For the compound `COc1cc(-c2[nH]c3ccc(CC4CN(C(=O)CN(C)C)C4)cc3c2C(C)C)cn2ncnc12` [Example 434], the IC50 is 1 nM against human TLR7, 7.4 nM against human TLR8 and 7490 nM against human TLR9.

As for `Cc1c(-c2[nH]c3ccc(C4CN(CC(=O)N(C)C)C4)cc3c2C(C)C)cn2cnnc2c1C` [Example 539], the 50% inhibitory concentration (IC50) at human TLR7 came to 64 nM; against human TLR8 it was 132 nM; against human TLR9, 1890 nM.

Turning to `COc1cc(-c2[nH]c3ccc(C4CCC(NC(=O)CN(C)C5CC5)CC4)cc3c2C(C)C)cn2ncnc12` (stereo not drawn) [Example 143], the IC50 amounted to 2 nM on human TLR7, 8 nM against human TLR8 and 27700 nM against human TLR9.

For the compound `COc1cc(-c2[nH]c3ccc(C4CCC(NC5COC5)CC4)cc3c2C(C)C)cn2ncnc12` (stereo not drawn) [Example 90], the IC50 against human TLR7 amounted to 0.48 nM; against human TLR8, 1.7 nM; on human TLR9, 1790 nM.

Turning to `Cc1c(-c2[nH]c3ccc(C4CCC(NC(=O)CN(C)C)CC4)cc3c2C(C)C)cn(C)c(=O)c1C` (stereo not drawn) [Example 471], the IC50 on human TLR7 was determined as 43 nM; at human TLR8, 14 nM; at human TLR9, 38300 nM.

Consider `CC(C)c1c(-c2ccnc3[nH]ncc23)[nH]c2ccc(CCC3CCNCC3)cc12` [Example 421], for which the half-inhibitory concentration (IC50) against human TLR7 is 14 nM; against human TLR8, 4 nM; against human TLR9, 1100 nM.

On to `Cc1cc(-c2[nH]c3ccc(C4CNCCO4)cc3c2C(C)C)cn2ncnc12` (stereo not drawn) [Example 281, 2-(3-isopropyl-2-(8-methyl-[1,2,4]triazolo[1,5-a]pyridin-6-yl)-1H-indol-5-yl)morpholine], for which the half-maximal inhibitory concentration (IC50) against human TLR7 amounted to 0.38 nM; on human TLR8, 1.1 nM; against human TLR9, 4020 nM.

As for `Cc1c(-c2[nH]c3ccc(C4CN(CC(C)(C)O)C4)cc3c2C(C)C)cn2ncnc2c1C` [Example 557], the values for the IC50 on human TLR7, at human TLR8 and on human TLR9 were 9 nM, 3.6 nM and 6750 nM, respectively.

As to `COc1cc(-c2[nH]c3ccc(C4CCCN(CC(N)=O)C4)cc3c2C(C)C)cn2ncnc12` (stereo not drawn) [Example 225], the IC50 was determined as 4 nM on human TLR7, 12 nM against human TLR8 and 4730 nM against human TLR9.

On to `Cc1c(-c2[nH]c3ccc(C4CNC4)cc3c2C(C)C)cn2ncnc2c1C` [Example 545], for which the half-inhibitory concentration (IC50) is 2 nM against human TLR7, 3.8 nM on human TLR8 and 2040 nM against human TLR9.

Consider `Cc1cc(-c2[nH]c3ccc(C4CN5CCC4CC5)cc3c2C(C)C)cc(C)n1` (single isomer, unassigned) [Example 362, 3-(2-(2,6-dimethylpyridin-4-yl)-3-isopropyl-1H-indol-5-yl)quinuclidine], for which the IC50 stood at 6 nM at human TLR7, 14 nM on human TLR8 and 432 nM against human TLR9.

For the compound `Cc1cc(-c2[nH]c3ccc(C4CCC(N5CCOCC5)CC4)cc3c2C(C)C)cn2ncnc12` (stereo not drawn) [Example 102], the IC50 on human TLR7 was 0.23 nM; at human TLR8, 0.71 nM; at human TLR9, 1890 nM.

Turning to `COc1ccc(-c2[nH]c3ccc(C4CCCNC4)cc3c2C(C)C)cc1OC` (stereo not drawn) [Example 592], the IC50 came to 31 nM against human TLR7, 10 nM against human TLR8 and 1470 nM against human TLR9.

In the case of `Cc1cc(-c2[nH]c3ccc(C4CN(CC(=O)N(C)C)C4)cc3c2C(C)C)cn2ncnc12` [Example 261], the figures for the IC50 against human TLR7, at human TLR8 and against human TLR9 were 4 nM, 11 nM and 3320 nM, respectively.

For `Cc1cc(-c2[nH]c3ccc(C4CCC(N5CCCC(F)(F)C5)CC4)cc3c2C(C)C)cn(C)c1=O` (stereo not drawn) [Example 468], the IC50 against human TLR7 was 280 nM; against human TLR8 it was 219 nM; on human TLR9 it was above 50000 nM.

As for `Cc1c(-c2[nH]c3ccc(C4CC(N)C4)cc3c2C(C)C)cn(C)c(=O)c1C` (stereo not drawn) [Example 493], the values for the IC50 against human TLR7, against human TLR8 and on human TLR9 were 16 nM, 4.6 nM and 4200 nM, respectively.

For `COCCN(C)C1CCC(c2ccc3[nH]c(-c4cn5ncnc5c(C)c4C)c(C(C)C)c3c2)CC1` (single isomer, unassigned) [Example 153, 4-(2-(7,8-dimethyl-[1,2,4]triazolo[1,5-a]pyridin-6-yl)-3-isopropyl-1H-indol-5-yl)-N-(2-methoxyethyl)-N-methylcyclohexanamine], the IC50 on human TLR7 came to 0.5 nM; against human TLR8, 0.72 nM; against human TLR9, 2140 nM.

Turning to `CNC(=O)CN1CC(c2ccc3[nH]c(-c4cn5ncnc5c(C)c4C)c(C(C)C)c3c2)C1` [Example 552], the IC50 at human TLR7 is 4 nM; at human TLR8, 3.4 nM; against human TLR9, 5570 nM.
